Measured values taken from the supplement of paper PMC10307832.

Experiments:
Assay in all cases: relative viability (nuclei count vs DMSO), 5 days (fraction); higher = more cells survive
[1] = tested on: SW 1573
How it was run: (§1)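 Lung cancer cell lines in 1536-well plates were dosed by pin tool the day after seeding, either with one drug alone or with a fixed anchor-drug dose plus five library-drug doses (not always all listed) in √10 steps. After 5 days, cells were fixed and their nuclei stained in one step (final 0.05% Triton X-100, 1% formaldehyde, 1 ug/ml Hoechst), then counted on 4× images. Relative viability is the nuclei count in treated wells divided by that in vehicle wells. Values are medians of duplicate plates.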

[2] = tested on: LU99A
How it was run: as §1

[3] = tested on: LC-2-ad
How it was run: as §1

[4] = tested on: NCI-H650
How it was run: as §1

[5] = tested on: NCI-H1437
How it was run: as §1

[6] = tested on: NCI-H1734
How it was run: as §1

[7] = tested on: SW 900
How it was run: as §1

[8] = tested on: NCI-H2023
How it was run: as §1

[9] = tested on: HCC-44
How it was run: as §1

[10] = tested on: BEN
How it was run: as §1

[11] = tested on: NCI-H2126
How it was run: as §1

[12] = tested on: NCI-H2170
How it was run: as §1

[13] = tested on: NCI-H727
How it was run: as §1

[14] = tested on: EMC-BAC-2
How it was run: as §1

[15] = tested on: NCI-H1915
How it was run: as §1

[16] = tested on: NCI-H1755
How it was run: as §1

[17] = tested on: NCI-H3122
How it was run: as §1

[18] = tested on: NCI-H358
How it was run: as §1

[19] = tested on: HOP-62
How it was run: as §1

[20] = tested on: HCC-15
How it was run: as §1

[21] = tested on: NCI-H1395
How it was run: as §1

`CN1CCN(CCOc2cc(OC3CCOCC3)c3c(Nc4c(Cl)ccc5c4OCO5)ncnc3c2)CC1` [Saracatinib] + O=C(c1cc(Cc2n[nH]c(=O)c3ccccc23)ccc1F)N1CCN(C(=O)C2CC2)CC1 [Olaparib] (partner 8 µM) showed a relative viability ([1]; first compound 0.02 µM) of 0.502, a relative viability ([1]; first compound 0.2 µM) of 0.382 and a relative viability ([1]; first compound 0.6325 µM) of 0.448. It also gave a relative viability ([1]; first compound 2 µM) of 0.384, a relative viability ([2]; first compound 0.02 µM) of 0.278 and a relative viability ([2]; first compound 0.2 µM) of 0.194. It also gave a relative viability ([2]; first compound 0.6325 µM) of 0.282, a relative viability ([2]; first compound 2 µM) of 0.256 and a relative viability ([3]; first compound 0.02 µM) of 0.773. For the same compound, the relative viability ([3]; first compound 0.2 µM) was 0.636, the relative viability ([3]; first compound 0.6325 µM) was 0.723 and the relative viability ([3]; first compound 2 µM) was 0.705. The relative viability ([4]; first compound 0.02 µM) was 0.353, the relative viability ([4]; first compound 0.2 µM) was 0.442 and the relative viability ([4]; first compound 0.6325 µM) was 0.429. For the same compound, the relative viability ([4]; first compound 2 µM) was 0.432, the relative viability ([5]; first compound 0.02 µM) was 0.68 and the relative viability ([5]; first compound 0.2 µM) was 0.648. It also gave a relative viability ([5]; first compound 0.6325 µM) of 0.618, a relative viability ([5]; first compound 2 µM) of 0.658 and a relative viability ([6]; first compound 0.02 µM) of 0.592. For the same compound, the relative viability ([6]; first compound 0.6325 µM) was 0.515, the relative viability ([6]; first compound 2 µM) was 0.547 and the relative viability ([7]; first compound 0.02 µM) was 0.831. The relative viability ([7]; first compound 0.2 µM) was 0.753, the relative viability ([7]; first compound 0.6325 µM) was 0.784 and the relative viability ([7]; first compound 2 µM) was 0.643. The relative viability ([8]; first compound 0.02 µM) was 0.503, the relative viability ([8]; first compound 0.6325 µM) was 0.417 and the relative viability ([8]; first compound 2 µM) was 0.393. The relative viability ([9]; first compound 0.02 µM) was 0.979, the relative viability ([9]; first compound 0.2 µM) was 0.863 and the relative viability ([9]; first compound 0.6325 µM) was 0.97. For the same compound, the relative viability ([9]; first compound 2 µM) was 0.976, the relative viability ([10]; first compound 0.02 µM) was 1.15 and the relative viability ([10]; first compound 0.2 µM) was 0.922. The relative viability ([10]; first compound 0.6325 µM) was 1.15, the relative viability ([10]; first compound 2 µM) was 0.794 and the relative viability ([11]; first compound 0.02 µM) was 0.886. The relative viability ([11]; first compound 0.2 µM) was 0.924, the relative viability ([11]; first compound 0.6325 µM) was 0.923 and the relative viability ([11]; first compound 2 µM) was 0.763. It also gave a relative viability ([12]; first compound 0.02 µM) of 0.597, a relative viability ([12]; first compound 0.2 µM) of 0.539 and a relative viability ([12]; first compound 0.6325 µM) of 0.558. The relative viability ([12]; first compound 2 µM) was 0.524, the relative viability ([13]; first compound 0.02 µM) was 0.687 and the relative viability ([13]; first compound 0.2 µM) was 0.51. For the same compound, the relative viability ([13]; first compound 0.6325 µM) was 0.534, the relative viability ([13]; first compound 2 µM) was 0.578 and the relative viability ([14]; first compound 0.02 µM) was 0.489. For the same compound, the relative viability ([14]; first compound 0.2 µM) was 0.418, the relative viability ([14]; first compound 0.6325 µM) was 0.562 and the relative viability ([14]; first compound 2 µM) was 0.474. For the same compound, the relative viability ([15]; first compound 0.02 µM) was 0.256, the relative viability ([15]; first compound 0.2 µM) was 0.244 and the relative viability ([15]; first compound 0.6325 µM) was 0.281. For the same compound, the relative viability ([15]; first compound 2 µM) was 0.225, the relative viability ([16]; first compound 0.02 µM) was 0.876 and the relative viability ([16]; first compound 0.2 µM) was 0.751. The relative viability ([16]; first compound 0.6325 µM) was 0.872, the relative viability ([16]; first compound 2 µM) was 0.786 and the relative viability ([17]; first compound 0.02 µM) was 0.62. The relative viability ([17]; first compound 0.2 µM) was 0.485, the relative viability ([17]; first compound 0.6325 µM) was 0.682 and the relative viability ([17]; first compound 2 µM) was 0.528. The relative viability ([18]; first compound 0.02 µM) was 0.527, the relative viability ([18]; first compound 0.2 µM) was 0.529 and the relative viability ([18]; first compound 0.6325 µM) was 0.272. The relative viability ([18]; first compound 2 µM) was 0.324, the relative viability ([19]; first compound 0.02 µM) was 0.38 and the relative viability ([19]; first compound 0.2 µM) was 0.417. For the same compound, the relative viability ([19]; first compound 0.6325 µM) was 0.204, the relative viability ([19]; first compound 2 µM) was 0.39 and the relative viability ([20]; first compound 0.02 µM) was 0.717. It also gave a relative viability ([20]; first compound 0.2 µM) of 0.634, a relative viability ([20]; first compound 0.6325 µM) of 0.79 and a relative viability ([20]; first compound 2 µM) of 0.752. For the same compound, the relative viability ([21]; first compound 0.02 µM) was 0.497, the relative viability ([21]; first compound 0.2 µM) was 0.488 and the relative viability ([21]; first compound 0.6325 µM) was 0.409. It also gave a relative viability ([21]; first compound 2 µM) of 0.436.
